Laboratory results reported in ChEMBL document CHEMBL1201862, “PubChem BioAssay data set” (2004).
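Compound exposure: 48 hours, 5 concentrations, 96-well plates. GI50 marks 50% less growth.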 Calls of active or inactive are those of the source. Rule as the data show it: active = GI50 up to about 1.1 µM and inactive = higher. Non-standard residues stand in square brackets, D forms with d. Residues, ends and D or L forms follow the SMILES beside them. *: point of attachment. Ac5c = NC1(C(=O)O)CCCC1; Boc = CC(C)(C)OC(=O)*; tBu = CC(C)(C)*

What was measured:
Experiment in all cases: NCI anticancer screen, dose series, 48 h
EKVX = tested on: EKVX
RXF 393 = tested on: RXF 393
HOP-62 = tested on: HOP-62
HOP-92 = tested on: HOP-92
NCI-H460 = tested on: NCI-H460
T47D = tested on: T47D
U-251 = tested on: U-251
OVCAR-5 = tested on: OVCAR-5
PC-3 = tested on: PC-3
Malme-3M = tested on: Malme-3M
Hs-578T = tested on: Hs-578T
SNB-75 = tested on: SNB-75
M14 = tested on: M14
NCI-H226 = tested on: NCI-H226
HT-29 = tested on: HT-29
NCI-H522 = tested on: NCI-H522
UO-31 = tested on: UO-31
KM12 = tested on: KM12
CCRF-CEM = tested on: CCRF-CEM

SMILES | GI50 (EKVX) | GI50 (RXF 393) | GI50 (HOP-62) | GI50 (HOP-92) | GI50 (NCI-H460) | GI50 (T47D) | GI50 (U-251) | GI50 (OVCAR-5) | GI50 (PC-3) | GI50 (Malme-3M) | GI50 (Hs-578T) | GI50 (SNB-75) | GI50 (M14) | GI50 (NCI-H226) | GI50 (HT-29) | GI50 (NCI-H522) | GI50 (UO-31) | GI50 (KM12) | GI50 (CCRF-CEM)
CN(Cc1cnc2nc(N)nc(N)c2n1)c1ccc(C(=O)NC(CCC(=O)NC(CC(P(=O)(O)O)P(=O)(O)O)C(=O)O)C(=O)O)cc1 (centres undefined) | > 100 µM (inactive) | > 100 µM (inactive) | > 100 µM (inactive) | > 100 µM (inactive) | > 100 µM (inactive) | > 100 µM (inactive) | > 100 µM (inactive) | > 100 µM (inactive) | > 100 µM (inactive) | > 100 µM (inactive) | > 100 µM (inactive) | > 100 µM (inactive) | > 100 µM (inactive) | > 100 µM (inactive) | > 100 µM (inactive) | > 100 µM (inactive) | > 100 µM (inactive) | – | –
CC(=O)NC1C(OCc2ccccc2)OC(CO)C(O)C1OCC(=O)N[C@@H](C)C(=O)N[C@H](CCC(=O)NCCNCCNc1c2ccccc2nc2cccc([N+](=O)[O-])c12)C(N)=O (some centres undefined) | 31.6 µM (inactive) | 36.4 µM (inactive) | 41.4 µM (inactive) | 20.7 µM (inactive) | 15.1 µM (inactive) | 27.5 µM (inactive) | 34.3 µM (inactive) | 53.3 µM (inactive) | 22.1 µM (inactive) | 19.2 µM (inactive) | 22.5 µM (inactive) | 33.2 µM (inactive) | 56 µM (inactive) | – | 23.6 µM (inactive) | 4.92 µM (inactive) | 44.8 µM (inactive) | 24.2 µM (inactive) | 24 µM (inactive)
COc1cc2c(cc1O)-c1c(cnn1-c1ccc([N+](=O)[O-])cc1)CCC2 | 28.1 µM (inactive) | 50.8 µM (inactive) | 21.9 µM (inactive) | 3.75 µM (inactive) | 10.3 µM (inactive) | 19.8 µM (inactive) | 11.7 µM (inactive) | 22.4 µM (inactive) | 10.8 µM (inactive) | 5.82 µM (inactive) | 19.7 µM (inactive) | 22.9 µM (inactive) | 16.6 µM (inactive) | 15.7 µM (inactive) | 16.4 µM (inactive) | 11.6 µM (inactive) | – | 12.6 µM (inactive) | 2.94 µM (inactive)
C/C1=C/C[C@@H](/C(C)=C/c2csc(C)n2)OC(=O)C[C@H](O)C(C)(C)C(=O)[C@H](C)[C@@H](O)[C@@H](C)CCC1 [EPOTHILONE D] | < 0.0001 µM (active) | < 0.0001 µM (active) | < 0.0001 µM (active) | 0.141 µM (active) | < 0.0001 µM (active) | < 0.0001 µM (active) | < 0.0001 µM (active) | < 0.0001 µM (active) | < 0.0001 µM (active) | – | < 0.0001 µM (active) | < 0.0001 µM (active) | < 0.0001 µM (active) | < 0.0001 µM (active) | < 0.0001 µM (active) | < 0.0001 µM (active) | < 0.0001 µM (active) | < 0.0001 µM (active) | < 0.0001 µM (active)
CC(OC(C)(C)C)C1NC(=O)C(CCCCNC(=O)OC(C)(C)C)NC(=O)C(Cc2c[nH]c3ccccc23)NC(=O)C(Cc2ccccc2)NC(=O)C2(CCCC2)NC(=O)C(Cc2ccccc2)NC1=O (centres undefined) (cyclo([Ac5c]FWK(Boc)T(tBu)F); configuration not given here) | 41.5 µM (inactive) | 37.5 µM (inactive) | 49.4 µM (inactive) | 23.5 µM (inactive) | 36.7 µM (inactive) | 10.4 µM (inactive) | 15.8 µM (inactive) | 72.6 µM (inactive) | 26.9 µM (inactive) | 27.3 µM (inactive) | 33.3 µM (inactive) | – | 16.7 µM (inactive) | 21.5 µM (inactive) | 24 µM (inactive) | 21.4 µM (inactive) | – | 29.4 µM (inactive) | 28.2 µM (inactive)
Cc1ccc2nc(-c3ccccc3)cc(=O)n2c1 | 81.8 µM (inactive) | > 100 µM (inactive) | > 100 µM (inactive) | > 100 µM (inactive) | > 100 µM (inactive) | 38.6 µM (inactive) | > 100 µM (inactive) | > 100 µM (inactive) | > 100 µM (inactive) | > 100 µM (inactive) | > 100 µM (inactive) | > 100 µM (inactive) | > 100 µM (inactive) | 64.6 µM (inactive) | > 100 µM (inactive) | > 100 µM (inactive) | – | > 100 µM (inactive) | > 100 µM (inactive)
N=c1c2c(ncn1N)Oc1c(c(-c3ccccc3)nn1-c1ccccc1)C2c1ccc(Cl)cc1 (centres undefined) | 1.82 µM (inactive) | 1.47 µM (inactive) | 1.66 µM (inactive) | 1.71 µM (inactive) | 1.42 µM (inactive) | 2.3 µM (inactive) | 1.65 µM (inactive) | 1.5 µM (inactive) | 1.63 µM (inactive) | 1.61 µM (inactive) | 1.64 µM (inactive) | 1.5 µM (inactive) | 1.56 µM (inactive) | 1.98 µM (inactive) | 1.39 µM (inactive) | – | 1.64 µM (inactive) | 1.6 µM (inactive) | 2.47 µM (inactive)
